Test [1] concerns ENR+CD organoids (ISC to Paneth cell differentiation). The test is described as follows: Primary screen: basal (non-stimulated) lysozyme secretion LYZ.NS, 2.5-D 384-well ENR+CD organoid differentiation. Conditions: primary screen; for Z.LYZ.NS: standard z score. In kind it is cell-based, mouse. From the text: (§1) High-throughput screening.
The subject of another test is ENR+CD organoids. The test is described as follows: Primary screen: ATP (CellTiter-Glo 3D, CTG) cell number/viability, 2.5-D 384-well ENR+CD organoids.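 On all read-outs here: compounds given at plating and again on day 3 over a 6-day differentiation from ENR+CV stem-cell-enriched precursors, ATP measured on day 6, plate median as control.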 Conditions: primary screen; for Z.CTG: standard z score.
For test [2], the system named is ENR+CD organoids (ISC to Paneth cell differentiation). The test is described as follows: Primary screen: CCh-stimulated lysozyme secretion LYZ.S, 2.5-D 384-well ENR+CD organoid differentiation. In kind it is cell-based, mouse. Particulars: primary screen.
Text: as §1

The mark [3] stands for this setting: dose 0.08 uM, FC relative to plate median.
The mark [4] stands for this setting: dose 0.40 uM, FC relative to plate median.
[5] abbreviates: dose 2.00 uM, FC relative to plate median.
Where [6] appears, read: dose 10.00 uM, FC relative to plate median.
Setting [7] is: dose 0.08 uM, FC vs plate median.
Where [8] appears, read: dose 0.40 uM, FC vs plate median.
Where [9] appears, read: dose 2.00 uM, FC vs plate median.
[10] abbreviates: dose 10.00 uM, FC vs plate median.

For the compound `COc1ccc2cccc(CCNC(C)=O)c2c1` [Agomelatine], the Dose.FC.LYZ.NS is on record as 0.026 log2 fold change in test [1] (dose 0.08 uM), 0.080 log2 fold change in test [1] (dose 0.40 uM), 0.069 log2 fold change in test [1] (dose 2.00 uM) and −0.033 log2 fold change in test [1] (dose 10.00 uM). Moreover, the “Z.LYZ.NS (standard z score)” value in test [1] (dose 0.08 uM) was 0.227; in test [1] (dose 0.40 uM), 0.695; in test [1] (dose 2.00 uM), 0.597; in test [1] (dose 10.00 uM), −0.285. Further, the Dose.FC.CTG is on record as 0.106 log2 fold change with ENR+CD organoids (dose 0.08 uM), 0.081 log2 fold change in the test with ENR+CD organoids (dose 0.40 uM), −0.198 log2 fold change with ENR+CD organoids (dose 2.00 uM) and 0.024 log2 fold change in the test on ENR+CD organoids (dose 10.00 uM). The Dose.FC.LYZ.S in test [2] (dose 0.08 uM) is recorded as 0.090 log2 fold change; in test [2] (dose 0.40 uM), 0.132 log2 fold change; in test [2] (dose 2.00 uM) it was −0.037 log2 fold change; in test [2] (dose 10.00 uM), 0.008 log2 fold change.
Take `CNC(=O)c1ccccc1Nc1nc(Nc2ccc(N3CCOCC3)cc2OC)ncc1Cl` [TAE226 (NVP-TAE226)]: the Dose.FC.LYZ.NS is on record as −0.256 log2 fold change in test [1] (setting [3]), −0.304 log2 fold change in test [1] (setting [4]), −0.323 log2 fold change in test [1] (setting [5]) and −0.292 log2 fold change in test [1] (setting [6]). Further, the Z.LYZ.NS in test [1] (dose 0.08 uM) is recorded as −2.226; in test [1] (dose 0.40 uM), −2.650; in test [1] (dose 2.00 uM), −2.813; in test [1] (dose 10.00 uM) it was −2.545. The Dose.FC.CTG with ENR+CD organoids (setting [3]) is given as −0.472 log2 fold change; in the test on ENR+CD organoids (setting [4]), −1.126 log2 fold change; in the test on ENR+CD organoids (setting [5]), −1.284 log2 fold change; in the test on ENR+CD organoids (setting [6]) it was −0.989 log2 fold change. The Z.CTG in the test with ENR+CD organoids (dose 0.08 uM) is −1.127; with ENR+CD organoids (dose 0.40 uM), −2.689; in the test on ENR+CD organoids (dose 2.00 uM), −3.068; in the test with ENR+CD organoids (dose 10.00 uM) it was −2.363. Further, the Dose.FC.LYZ.S in test [2] (setting [3]) is recorded as −0.333 log2 fold change; in test [2] (setting [4]), −0.376 log2 fold change; in test [2] (setting [5]), −0.400 log2 fold change; in test [2] (setting [6]) it was −0.426 log2 fold change.
For the compound `COc1ccc(-n2nc(C(N)=O)c3c2C(=O)N(c2ccc(N4CCCCC4=O)cc2)CC3)cc1` [Apixaban], the Dose.FC.LYZ.NS is reported as 0.004 log2 fold change in test [1] (dose 0.08 uM), −0.030 log2 fold change in test [1] (dose 0.40 uM), 0.029 log2 fold change in test [1] (dose 2.00 uM) and −0.082 log2 fold change in test [1] (dose 10.00 uM). Moreover, the “Z.LYZ.NS (standard z score)” value was 0.035 in test [1] (dose 0.08 uM), −0.260 in test [1] (dose 0.40 uM), 0.253 in test [1] (dose 2.00 uM) and −0.712 in test [1] (dose 10.00 uM). The Dose.FC.CTG is listed as −0.089 log2 fold change in the test with ENR+CD organoids (dose 0.08 uM), 0.111 log2 fold change in the test on ENR+CD organoids (dose 0.40 uM), −0.060 log2 fold change with ENR+CD organoids (dose 2.00 uM) and −0.077 log2 fold change in the test with ENR+CD organoids (dose 10.00 uM). Further, the Dose.FC.LYZ.S in test [2] (dose 0.08 uM) was 0.081 log2 fold change; in test [2] (dose 0.40 uM), 0.029 log2 fold change; in test [2] (dose 2.00 uM) it was 0.051 log2 fold change; in test [2] (dose 10.00 uM) it was −0.096 log2 fold change.
In the case of `NC(=O)c1cccc(-c2cccc(OC(=O)NC3CCCCC3)c2)c1` [URB597], the Dose.FC.LYZ.NS is recorded as 0.087 log2 fold change in test [1] (dose 0.08 uM), −0.001 log2 fold change in test [1] (dose 0.40 uM), 0.035 log2 fold change in test [1] (dose 2.00 uM) and −0.014 log2 fold change in test [1] (dose 10.00 uM). The “Z.LYZ.NS (standard z score)” value in test [1] (dose 0.08 uM) is 0.754; in test [1] (dose 0.40 uM), −0.007; in test [1] (dose 2.00 uM), 0.307; in test [1] (dose 10.00 uM) it was −0.123. For the same compound, the Dose.FC.CTG is on record as 0.314 log2 fold change with ENR+CD organoids (dose 0.08 uM), 0.065 log2 fold change in the test on ENR+CD organoids (dose 0.40 uM), 0.137 log2 fold change with ENR+CD organoids (dose 2.00 uM) and −0.021 log2 fold change in the test with ENR+CD organoids (dose 10.00 uM). For the same compound, the Dose.FC.LYZ.S is listed as 0.141 log2 fold change in test [2] (dose 0.08 uM), 0.021 log2 fold change in test [2] (dose 0.40 uM), 0.017 log2 fold change in test [2] (dose 2.00 uM) and −0.044 log2 fold change in test [2] (dose 10.00 uM).
Regarding `Cc1[nH]c2ccccc2c1CCNCc1ccc(/C=C/C(=O)NO)cc1` [Panobinostat (LBH589)], the Z.LYZ.NS in test [1] (dose 0.08 uM) is given as 0.014; in test [1] (dose 0.40 uM) it was −0.232; in test [1] (dose 2.00 uM) it was −1.329; in test [1] (dose 10.00 uM), −1.891. Further, the Dose.FC.LYZ.NS in test [1] (setting [7]) is given as 0.002 log2 fold change; in test [1] (setting [8]), −0.027 log2 fold change; in test [1] (setting [9]), −0.153 log2 fold change; in test [1] (setting [10]) it was −0.217 log2 fold change. Besides, the Z.CTG in the test with ENR+CD organoids (dose 0.08 uM) was 0.706; in the test with ENR+CD organoids (dose 0.40 uM), 0.506; in the test on ENR+CD organoids (dose 2.00 uM), −1.283; in the test with ENR+CD organoids (dose 10.00 uM), −2.395. Moreover, the Dose.FC.CTG in the test on ENR+CD organoids (setting [7]) was 0.295 log2 fold change; in the test on ENR+CD organoids (setting [8]), 0.212 log2 fold change; with ENR+CD organoids (setting [9]), −0.537 log2 fold change; in the test with ENR+CD organoids (setting [10]), −1.003 log2 fold change. For the same compound, the Dose.FC.LYZ.S in test [2] (setting [7]) is listed as −0.034 log2 fold change; in test [2] (setting [8]) it was −0.042 log2 fold change; in test [2] (setting [9]), −0.285 log2 fold change; in test [2] (setting [10]) it was −0.320 log2 fold change.
With `COc1cc2/c(=N/c3ccc(Br)cc3F)nc[nH]c2cc1OCC1CCN(C)CC1` [Vandetanib (ZD6474)], the Dose.FC.LYZ.NS in test [1] (dose 0.08 uM) is −0.068 log2 fold change; in test [1] (dose 0.40 uM) it was −0.091 log2 fold change; in test [1] (dose 2.00 uM), −0.271 log2 fold change; in test [1] (dose 10.00 uM) it was −0.298 log2 fold change. Besides, the “Z.LYZ.NS (standard z score)” value is given as −0.594 in test [1] (dose 0.08 uM), −0.792 in test [1] (dose 0.40 uM), −2.356 in test [1] (dose 2.00 uM) and −2.594 in test [1] (dose 10.00 uM). The Dose.FC.CTG with ENR+CD organoids (dose 0.08 uM) is −0.648 log2 fold change; with ENR+CD organoids (dose 0.40 uM), −0.366 log2 fold change; with ENR+CD organoids (dose 2.00 uM), −0.874 log2 fold change; with ENR+CD organoids (dose 10.00 uM), −1.206 log2 fold change. The “Z.CTG (standard z score)” value is recorded as −1.547 in the test on ENR+CD organoids (dose 0.08 uM), −0.874 in the test on ENR+CD organoids (dose 0.40 uM), −2.089 with ENR+CD organoids (dose 2.00 uM) and −2.880 in the test on ENR+CD organoids (dose 10.00 uM). In addition, the Dose.FC.LYZ.S is on record as −0.139 log2 fold change in test [2] (dose 0.08 uM), −0.054 log2 fold change in test [2] (dose 0.40 uM), −0.384 log2 fold change in test [2] (dose 2.00 uM) and −0.494 log2 fold change in test [2] (dose 10.00 uM).
`Cc1cc(Nc2cc(N3CCN(C)CC3)nc(Sc3ccc(NC(=O)C4CC4)cc3)n2)n[nH]1` [VX-680 (Tozasertib, MK-0457)]: the Dose.FC.LYZ.NS was −0.043 log2 fold change in test [1] (dose 0.08 uM), −0.151 log2 fold change in test [1] (dose 0.40 uM), −0.166 log2 fold change in test [1] (dose 2.00 uM) and −0.238 log2 fold change in test [1] (dose 10.00 uM). Besides, the “Z.LYZ.NS (standard z score)” value is −0.371 in test [1] (dose 0.08 uM), −1.317 in test [1] (dose 0.40 uM), −1.450 in test [1] (dose 2.00 uM) and −2.069 in test [1] (dose 10.00 uM). In addition, the Dose.FC.CTG in the test on ENR+CD organoids (dose 0.08 uM) is reported as −0.150 log2 fold change; with ENR+CD organoids (dose 0.40 uM) it was −0.596 log2 fold change; with ENR+CD organoids (dose 2.00 uM) it was −0.706 log2 fold change; in the test on ENR+CD organoids (dose 10.00 uM), −0.959 log2 fold change. Moreover, the “Z.CTG (standard z score)” value in the test with ENR+CD organoids (dose 0.08 uM) is on record as −0.359; in the test on ENR+CD organoids (dose 0.40 uM), −1.425; in the test with ENR+CD organoids (dose 2.00 uM) it was −1.686; in the test on ENR+CD organoids (dose 10.00 uM) it was −2.291. Besides, the Dose.FC.LYZ.S in test [2] (dose 0.08 uM) is recorded as −0.078 log2 fold change; in test [2] (dose 0.40 uM), −0.245 log2 fold change; in test [2] (dose 2.00 uM), −0.308 log2 fold change; in test [2] (dose 10.00 uM), −0.342 log2 fold change.
As to `Cc1[nH]c(/C=C2\C(=O)Nc3ccc(S(=O)(=O)N(C)c4cccc(Cl)c4)cc32)c(C)c1C(=O)N1CCN(C)CC1` [SU11274], the Dose.FC.LYZ.NS in test [1] (setting [3]) is 0.084 log2 fold change; in test [1] (setting [4]), 0.120 log2 fold change; in test [1] (setting [5]) it was 0.005 log2 fold change; in test [1] (setting [6]), −0.207 log2 fold change. Also, the Z.LYZ.NS in test [1] (dose 0.08 uM) was 0.735; in test [1] (dose 0.40 uM), 1.043; in test [1] (dose 2.00 uM), 0.047; in test [1] (dose 10.00 uM), −1.804. The Dose.FC.CTG is reported as 0.357 log2 fold change in the test on ENR+CD organoids (setting [3]), 0.270 log2 fold change in the test with ENR+CD organoids (setting [4]), 0.058 log2 fold change in the test with ENR+CD organoids (setting [5]) and −0.818 log2 fold change in the test with ENR+CD organoids (setting [6]). Moreover, the Dose.FC.LYZ.S in test [2] (setting [3]) is on record as 0.115 log2 fold change; in test [2] (setting [4]), 0.298 log2 fold change; in test [2] (setting [5]), 0.008 log2 fold change; in test [2] (setting [6]) it was −0.300 log2 fold change.

These data come from patent US20220323406A1, “METHODS AND COMPOSITIONS FOR DIFFERENTIATING STEM CELLS” (Massachusetts Institute of Technology, priority 2019, published 2022).
